{"source": "patent US6716428B1", "about": "“Antigenic modification of polypeptides” (The Ohio State University Research Foundation, priority 1999, dated 2004)", "key": {"[1]": {"tested_on": "pituitary HLH", "assay": "Antibodies bound to pituitary HLH raised by conjugated 38-57 loop analogs and reference conjugates (Example XLIV)", "type": "in vivo, human", "details": "mean peak binding of the antisera", "description": "(§1) In an effort to obtain improved results over the analogs described in my earlier Example XLIII, further synthetic analogs of the unsubstituted 38-57 amino acid sequence of βHCG were prepared and evaluated in a similar manner as set forth in the prior examples. These analogs were provided with a disulfide bridge linking their 38 Cys and 57 Cys to form a loop and included the amino acid residue Ala (Pro)6 on the N-terminus as described earlier herein.\n(§2) Table 33 illustrates nine analogs of the 38-57 loop peptide of βHCG with a varying number of amino acid substitutions in the positions outside the conceived 43-50 epitope sequence.\n(§3) The antibodies values are expressed herein are as namomoles bound/L unless otherwise stated."}, "[2]": {"tested_on": "HCG", "assay": "Antibodies bound to HCG raised by conjugated 38-57 loop analogs and reference conjugates (Example XLIV)", "type": "in vivo, human", "details": "for antibodies bound to HCG: mean peak binding of the antisera", "description": "as §1, §2, §3"}, "[3]": {"tested_on": "Friends' Leukemia Virus", "assay": "Survival of immunized SJL/J mice inoculated with Friends' Leukemia Virus", "type": "in vivo", "set-up": "concentration or dose not given beside the values", "from_the_text": "The mice used in this experiment were six-week old female mice of SJL/J strain. A test group and a control group, each containing approximately 20 mice were selected at random and were immunized in the same manner as in Example XXXVI above, the test animals receiving the vaccine containing the peptide/diphtheria toxoid conjugate and the control group receiving the vaccine containing only the vehicle. However, in this experiment a different immunization schedule was followed: the original immunization was followed by booster immunizations 4, 9, 20 and 29 weeks later. Six weeks after the first immunization (i.e. two weeks after the second immunization) each mouse was injected with approximately 1 million Friends' Leukemia Virus and the mice were observed daily for deaths."}, "[4]": {"tested_on": "female baboons", "assay": "Fertility rates (matings and pregnancies) of immunized female baboons", "type": "in vivo, baboon", "details": "for Fertility Rate (%) / No. Pregnant: female baboons"}, "[5]": {"tested_on": "Ridgeway Osteogenic Sarcoma", "assay": "Growth of Ridgeway Osteogenic Sarcoma in immunized AKR mice", "type": "in vivo", "from_the_text": "Sixty mice of the AKR strain were divided at random into a test group and a control group each comprising 30 mice. The test group were then immunized in the same manner as in Examples XXXVI and XXXVII with a vaccine comprising the same conjugate as in those Examples dissolved in Freund's Complete Adjuvant, while the control group simply received the Freund's Adjuvant. Booster Immunizations were given to each group three and seven weeks after the first immunization. […] In the mice in which the tumor survived, tumor volume measurements were made 22, 26, 29, 31, 33, 38, 40 and 43 days after innoculation with the Sarcoma. […] Nevertheless, the results in Table 27 do show a significant reduction in the rate of tumor growth in the conjugate-immunized mice."}, "[6]": {"tested_on": "rabbit polyclonal antiserum to the 38-57 loop peptide", "assay": "Competition radioimmunoassay with rabbit polyclonal antiserum to the 38-57 loop peptide", "type": "binding", "description": "In the preceding examples, the studied available smallest peptide highly reactive to H-18 MAB was the 40-52 residue peptide and therefore, it was contemplated that the entire epitope resided within this sequence. By the procedures described in earlier examples for other peptides, peptides representing 50-52, 49-52, 48-52, 47-52, 46-52, 45-52, 44-52, 43-52, 42-52, and 41-52 were prepared and tested for reactivity with H-18 MAB and a rabbit polyclonal antiserum to the 38-57 loop peptide.\nBy earlier described procedures for other peptide preparations, peptides 43-45, 43-46, 43-48, 43-49, 43-50, and 43-51 were prepared to define the C-terminal boundary of the H-18 MAB epitope and to determine whether polyclonal antisera to the 38-57 loop reacted to sequences beyond the H-18 boundary. […] This latter immunogenicity could involve N-terminal residues 41 and 42 and the C-terminal residue 51.\nPeptides with amino acid substitutions in the 43-50 sequence were unreactive."}, "[7]": {"tested_on": "progesterone", "details": "female baboons"}, "[8]": {"tested_on": "female baboons"}, "[9]": {"details": "post-immunization menstrual cycle 1"}, "[10]": {"details": "post-immunization menstrual cycle 2"}, "[11]": {"details": "post-immunization menstrual cycle 3"}, "[12]": {"details": "post-immunization menstrual cycle 4"}, "[13]": {"details": "post-immunization menstrual cycle 5"}, "[14]": {"details": "pre-immunization menstrual cycle −1"}, "[15]": {"details": "pre-immunization menstrual cycle −2"}, "[16]": {"details": "pre-immunization menstrual cycle −3"}}, "note": "Read-outs that look alike come from different tables or passages of the source. Square brackets hold non-standard residues; d marks the D form. Ends that are not written are not given here. Nle = CCCC[C@H](N)C(=O)O", "data": [{"substance": "CPT[Nle]DRVLQGVLPAVPQVVC (cysteine pairing not given here) [analog number 2]", "values": [{"measurement": "antibodies bound to pituitary HLH", "setting": "[1]", "value": 13, "unit": "nanomoles bound/L"}, {"measurement": "HCG antibodies bound, of those using the conjugated unsubstituted 38-57 loop sequence", "setting": "[2]; in vivo", "value": "about 75%"}, {"measurement": "antibodies bound to HCG", "setting": "[2]", "value": 420, "unit": "nanomoles bound/L"}]}, {"substance": "Conjugate (TCDDPRFQDSSSSKAPPPSLPSPSRLPGPSDTPILPQ; also: conjugated to foreign carrier; listed as Homo sapiens)", "values": [{"measurement": "Survival Rate - %", "setting": "[3]; 0 days after inoculation with Friends' Leukemia Virus", "value": 100.0, "unit": "%"}, {"measurement": "Survival Rate - %", "setting": "[3]; 22 days after inoculation", "value": 100.0, "unit": "%"}, {"measurement": "Survival Rate - %", "setting": "[3]; 29 days after inoculation", "value": 100.0, "unit": "%"}, {"measurement": "Survival Rate - %", "setting": "[3]; 98 days after inoculation (day of booster immunization)", "value": 100.0, "unit": "%"}, {"measurement": "Survival Rate - %", "setting": "[3]; 160 days after inoculation", "value": 100.0, "unit": "%"}, {"measurement": "Survival Rate - %", "setting": "[3]; 163 days after inoculation (day of booster immunization)", "value": 100.0, "unit": "%"}, {"measurement": "Survival Rate - %", "setting": "[3]; 166 days after inoculation", "value": 100.0, "unit": "%"}, {"measurement": "Survival Rate - %", "setting": "[3]; 175 days after inoculation", "value": 100.0, "unit": "%"}, {"measurement": "Survival Rate - %", "setting": "[3]; 180 days after inoculation", "value": 100.0, "unit": "%"}, {"measurement": "Fertility Rate (%)", "setting": "[4]; mating cycle 1", "value": 0, "unit": "%"}, {"measurement": "No. Pregnant", "setting": "[4]; mating cycle 1", "value": 0}, {"measurement": "Fertility Rate (%)", "setting": "[4]; mating cycle 2", "value": 6.7, "unit": "%"}, {"measurement": "No. Pregnant", "setting": "[4]; mating cycle 2", "value": 1}, {"measurement": "Fertility Rate (%)", "setting": "[4]; mating cycle 3", "value": 7.1, "unit": "%"}, {"measurement": "No. Pregnant", "setting": "[4]; mating cycle 3", "value": 1}, {"measurement": "Fertility Rate (%)", "setting": "[4]; totals of mating cycles 1-3", "value": 4.6, "unit": "%"}, {"measurement": "No. Pregnant", "setting": "[4]; totals of mating cycles 1-3", "value": 2}, {"measurement": "Mean Tumor Volume - cm^3", "setting": "[5]; day 22 of tumor growth", "value": 0.65, "unit": "cm^3"}, {"measurement": "Mean Tumor Volume - cm^3", "setting": "[5]; day 26 of tumor growth", "value": 0.68, "unit": "cm^3"}, {"measurement": "Mean Tumor Volume - cm^3", "setting": "[5]; day 29 of tumor growth", "value": 1.20, "unit": "cm^3"}, {"measurement": "Mean Tumor Volume - cm^3", "setting": "[5]; day 31 of tumor growth", "value": 2.24, "unit": "cm^3"}, {"measurement": "Mean Tumor Volume - cm^3", "setting": "[5]; day 33 of tumor growth", "value": 3.04, "unit": "cm^3"}, {"measurement": "Mean Tumor Volume - cm^3", "setting": "[5]; day 36 of tumor growth", "value": 3.14, "unit": "cm^3"}, {"measurement": "Mean Tumor Volume - cm^3", "setting": "[5]; day 38 of tumor growth", "value": 4.40, "unit": "cm^3"}, {"measurement": "Mean Tumor Volume - cm^3", "setting": "[5]; day 40 of tumor growth", "value": 5.54, "unit": "cm^3"}, {"measurement": "Mean Tumor Volume - cm^3", "setting": "[5]; day 43 of tumor growth", "value": 5.00, "unit": "cm^3"}]}, {"substance": "CPTMTRVLQGVLPALPQVVC (cysteine pairing not given here) [Structure (XXVII)]", "values": [{"measurement": "antibodies against the peptide not directed to the 43-50 region", "setting": "[6]", "value": "about 5%"}]}, {"substance": "diphtheria toxoid", "values": [{"measurement": "Luteal phase Progesterone (ng/ml), Mean", "setting": "[7]; [9]", "value": 4.3, "unit": "ng/mL"}, {"measurement": "Luteal phase Progesterone (ng/ml), Mean", "setting": "[7]; [10]", "value": 6.0, "unit": "ng/mL"}, {"measurement": "Luteal phase Progesterone (ng/ml), Mean", "setting": "[7]; [11]", "value": 7.0, "unit": "ng/mL"}, {"measurement": "Luteal phase Progesterone (ng/ml), Mean", "setting": "[7]; [12]", "value": 5.9, "unit": "ng/mL"}, {"measurement": "Luteal phase Progesterone (ng/ml), Mean", "setting": "[7]; [13]", "value": 6.0, "unit": "ng/mL"}, {"measurement": "Luteal phase Progesterone (ng/ml), Mean", "setting": "[7]; [14]", "value": 6.0, "unit": "ng/mL"}, {"measurement": "Luteal phase Progesterone (ng/ml), Mean", "setting": "[7]; [15]", "value": 6.8, "unit": "ng/mL"}, {"measurement": "Luteal phase Progesterone (ng/ml), Mean", "setting": "[7]; [16]", "value": 6.9, "unit": "ng/mL"}, {"measurement": "Fertility Rate", "setting": "[4]; Example XXXV, all matings of three mating cycles, CGP 11637, Squalene/Arlacel A", "value": 70, "unit": "%"}, {"measurement": "Fertility Rate (%)", "setting": "[4]; mating cycle 1", "value": 73.3, "unit": "%"}, {"measurement": "No. Pregnant", "setting": "[4]; mating cycle 1", "value": 11}, {"measurement": "Fertility Rate (%)", "setting": "[4]; mating cycle 2", "value": 75.0, "unit": "%"}, {"measurement": "No. Pregnant", "setting": "[4]; mating cycle 2", "value": 3}, {"measurement": "Fertility Rate (%)", "setting": "[4]; mating cycle 3", "value": 0, "unit": "%"}, {"measurement": "No. Pregnant", "setting": "[4]; mating cycle 3", "value": 0}, {"measurement": "Fertility Rate (%)", "setting": "[4]; totals of mating cycles 1-3", "value": 70.0, "unit": "%"}, {"measurement": "No. Pregnant", "setting": "[4]; totals of mating cycles 1-3", "value": 14}, {"measurement": "pregnancies in total", "setting": "[4]; in vivo", "value": 14}, {"measurement": "Cycle Length (days), Mean", "setting": "[8]; [9]", "value": 32.7, "unit": "days"}, {"measurement": "Cycle Length (days), Mean", "setting": "[8]; [10]", "value": 33.1, "unit": "days"}, {"measurement": "Cycle Length (days), Mean", "setting": "[8]; [11]", "value": 34.0, "unit": "days"}, {"measurement": "Cycle Length (days), Mean", "setting": "[8]; [12]", "value": 30.0, "unit": "days"}, {"measurement": "Cycle Length (days), Mean", "setting": "[8]; [13]", "value": 31.0, "unit": "days"}, {"measurement": "Cycle Length (days), Mean", "setting": "[8]; [14]", "value": 33.2, "unit": "days"}, {"measurement": "Cycle Length (days), Mean", "setting": "[8]; [15]", "value": 33.5, "unit": "days"}, {"measurement": "Cycle Length (days), Mean", "setting": "[8]; [16]", "value": 34.4, "unit": "days"}]}, {"substance": "conjugate including the βHCG 109-145 amino acid sequence: conjugate of the βHCG 109-145 sequence tested in Example XLIV (TCDDPRFQDSSSSKAPPPSLPSPSRLPGPSDTPILPQ; also: conjugated to carrier; UniProt P0DN86 129-165, looked up, fragment)", "values": [{"measurement": "antibodies bound to pituitary HLH", "setting": "[1]", "value": 0, "unit": "nanomoles bound/L"}, {"measurement": "antibodies bound to HCG", "setting": "[2]", "value": 1240, "unit": "nanomoles bound/L"}]}]}
